# In ChEMBL document CHEMBL5053468, “Aromatic ring compound as ghrelin o-acyltransferase inhibitor” (2017):
# Target: T1, Membrane-bound ghrelin O-acyltransferase MBOAT4 (Homo sapiens) (UniProt Q96T53)
# T1 sequence (whole entry): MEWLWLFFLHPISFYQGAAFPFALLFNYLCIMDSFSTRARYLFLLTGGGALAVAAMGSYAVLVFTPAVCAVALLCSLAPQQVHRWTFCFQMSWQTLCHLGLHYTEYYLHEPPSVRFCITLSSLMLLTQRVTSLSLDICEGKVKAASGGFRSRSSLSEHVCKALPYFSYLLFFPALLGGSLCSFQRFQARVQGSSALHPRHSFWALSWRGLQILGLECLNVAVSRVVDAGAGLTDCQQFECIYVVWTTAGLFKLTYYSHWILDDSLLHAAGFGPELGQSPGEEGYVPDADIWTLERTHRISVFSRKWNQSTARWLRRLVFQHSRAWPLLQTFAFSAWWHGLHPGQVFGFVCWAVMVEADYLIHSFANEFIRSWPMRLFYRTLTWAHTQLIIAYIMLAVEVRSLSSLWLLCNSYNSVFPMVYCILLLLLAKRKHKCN
# Assay: Inhibition of human GOAT expressed in baculovirus infected Sf9 cells at 10 uM using octanoyl-CoA and ghrelin-biotin as substrate preincubated for 20 mins followed by substrate addition and measured after = > 1 hr by HTRF assay relative to control
# Conditions: time hrs >=1
row,inhibition [%],SMILES
1,59,CCC(=O)NCC[C@@H]1COc2cc(OCc3ccc(Cl)cc3Cl)ccc21
2,83,O=C(O)Cc1csc2cc(S(=O)(=O)Cc3ccc(Cl)cc3Cl)ccc12
3,93.8,COC(=O)Cc1csc2cc(OCc3ccc(C(F)(F)F)nc3C)cc(C)c12
4,93,O=C(O)C[C@@H]1COc2cc(OCc3ccc(Cl)cc3Cl)ccc21
5,88.1,COC(=O)Cc1csc2c(Cl)c(OCc3ccc(C(F)(F)F)nc3C)cc(Cl)c12
6,99.5,COC(=O)Cc1c(C)sc2cc(OCc3cc(C(F)(F)F)nn3C)cc(Cl)c12
7,94,COC(=O)Cc1csc2c(F)c(OCc3ccc(C(F)(F)F)nc3C)cc(C)c12
8,95.2,COC(=O)Cc1csc2cc(OCc3cc(C(F)(F)F)nn3C)cc(C)c12
9,106,Cc1nc(C(F)(F)F)ccc1COc1cc(Cl)c2c(CC(=O)O)csc2c1Cl
10,97.3,Cc1ccc(CCc2ccc3c(CC(=O)O)csc3c2)c(C)n1
11,95,O=C(O)CNC(=O)Cc1csc2cc(OCc3ccc(Cl)cc3Cl)ccc12
12,96.5,COC(=O)Cc1csc2cc(OCc3ccc(C)nc3C)cc(Cl)c12
13,107,Cn1nc(C(F)(F)F)cc1COc1cc(Cl)c2c(CC(=O)O)csc2c1F
14,103,Cc1ccc(COc2cc(C(F)(F)F)c3c(CC(=O)O)csc3c2)c(C)n1
15,104,Cc1cc(OCc2cc(C(F)(F)F)nn2C)cc2scc(CC(=O)O)c12
16,103,Cc1cc(OCc2ccc(Cl)cc2Cl)cc2scc(CC(=O)O)c12
17,51.5,COC(=O)Cc1c(C)sc2cc(OCc3ccc(C(F)(F)F)nc3C)cc(Cl)c12
18,100,COC(=O)Cc1csc2cc(OCc3cc(C(F)(F)F)nn3C)cc(Cl)c12
19,62.8,COC(=O)Cc1csc2c(C)c(OCc3ccc(C(F)(F)F)nc3C)cc(C)c12
20,105,Cn1nc(C(F)(F)F)cc1COc1cc(Cl)c2c(CC(=O)O)csc2c1
21,88.9,CCOC(=O)Cc1csc2cc(OCc3cc(C(F)(F)F)nn3C)ccc12
22,105,Cn1nc(C(F)(F)F)cc1COc1cc(Cl)c2c(CC(=O)O)csc2c1Cl
23,105,Cc1cc(COc2cc(Cl)c3c(CC(=O)O)csc3c2)n(C)n1
24,73,CC(=O)NCCc1coc2cc(OCc3ccc(Cl)cc3Cl)ccc12
25,106,Cc1nc(C(F)(F)F)ccc1COc1cc(Cl)c2c(CC(=O)O)csc2c1F

row,inhibition [%],SMILES
1,97,O=C(Cc1csc2cc(OCc3ccc(Cl)cc3Cl)ccc12)NC(CO)C(=O)O (stereo not given)
2,84.4,COC(=O)Cc1csc2cc(OCc3ccc(Cl)cc3Cl)cc(C)c12
3,99.2,Cc1nc(C(F)(F)F)ccc1COc1cc(C)c2c(CC(=O)O)csc2c1
4,81,O=C(O)C1(CO)COc2cc(OCc3ccc(Cl)cc3Cl)ccc21 (stereo not given)
5,99.3,O=C(O)Cc1csc2cc(SCc3ccc(Cl)cc3Cl)ccc12
6,69,CC(=O)NCC[C@@H]1COc2cc(OCc3ccc(Cl)cc3Cl)ccc21
7,68.7,COC(=O)Cc1coc2c(C)c(OCc3ccc(Cl)cc3Cl)cc(C)c12
8,85,COCC1(C(=O)O)COc2cc(OCc3ccc(Cl)cc3Cl)ccc21 (stereo not given)
9,96.1,COC(=O)Cc1csc2c(F)c(OCc3cc(C(F)(F)F)nn3C)cc(C)c12
10,56,CCOC(=O)CNC(=O)Cc1csc2cc(OCc3ccc(Cl)cc3Cl)ccc12
11,86,O=C(O)C[C@H]1COc2cc(OCc3ccc(Cl)cc3Cl)ccc21
12,98.9,COC(=O)Cc1csc2c(F)c(OCc3cc(C(F)(F)F)nn3C)cc(Cl)c12
13,92.8,CCOC(=O)Cc1csc2cc(OCc3ccc(C)nc3C)ccc12
14,104,Cn1nc(C(F)(F)F)cc1COc1cc(F)c2c(CC(=O)O)csc2c1
15,106,Cc1sc2cc(OCc3cc(C(F)(F)F)nn3C)cc(Cl)c2c1CC(=O)O
16,92.7,COC(=O)Cc1coc2c(C)c(OCc3ccc(C)nc3C)cc(C)c12
17,67,O=C(O)Cc1csc2cc([S+]([O-])Cc3ccc(Cl)cc3Cl)ccc12 (stereo not given)
18,96.2,Cc1cc(OCc2ccc(Cl)cc2Cl)c(C)c2c1C(CC(=O)O)CO2 (stereo not given)
19,92.7,COC(=O)Cc1csc2c(Cl)c(OCc3cc(C(F)(F)F)nn3C)cc(Cl)c12
20,94.7,COC(=O)Cc1csc2cc(OCc3cc(C)nn3C)cc(C)c12
21,107,Cc1ccc(COc2cc(Cl)c3c(CC(=O)O)csc3c2)c(C)n1
22,104,Cc1cc(OCc2cc(C(F)(F)F)nn2C)c(F)c2scc(CC(=O)O)c12
23,99.9,COC(=O)Cc1csc2cc(OCc3cc(C(F)(F)F)nn3C)cc(F)c12
24,105,Cc1nc(C(F)(F)F)ccc1COc1cc(C)c2c(CC(=O)O)csc2c1C
25,91.6,COC(=O)Cc1csc2cc(OCc3ccc(C(F)(F)F)nc3C)cc(Cl)c12

row,inhibition [%],SMILES
1,83.2,CCS(=O)(=O)NC(=O)Cc1csc2cc(OCc3ccc(Cl)cc3Cl)ccc12
2,102,Cc1ccc(COc2cc(C)c3c(CC(=O)O)coc3c2C)c(C)n1
3,101,Cc1nc(C(F)(F)F)ccc1COc1cc(Cl)c2c(CC(=O)O)csc2c1
4,97.4,COC(=O)Cc1csc2cc(OCc3cc(C)nn3C)cc(Cl)c12
5,88.6,COC(=O)Cc1csc2c(F)c(OCc3ccc(C(F)(F)F)nc3C)cc(Cl)c12
6,103,Cc1c(OCc2ccc(Cl)cc2Cl)cc(C)c2c(CC(=O)O)coc12
7,100,O=C(O)Cc1coc2c(Cl)c(OCc3ccc(Cl)cc3Cl)ccc12
8,86,COC(=O)C(CO)NC(=O)Cc1csc2cc(OCc3ccc(Cl)cc3Cl)ccc12 (stereo not given)
9,103,Cn1nc(C(F)(F)F)cc1COc1cc(C(F)(F)F)c2c(CC(=O)O)csc2c1
10,99,O=C(O)CC1CSc2cc(OCc3ccc(Cl)cc3Cl)ccc21 (stereo not given)
11,103,Cc1nc(C(F)(F)F)ccc1COc1cc(Cl)c2c(CC(=O)O)c(C)sc2c1
12,98.2,Cn1nc(C(F)(F)F)cc1COc1ccc2c(CC(=O)O)csc2c1
13,100,Cc1nc(C(F)(F)F)ncc1COc1cc(C)c2c(CC(=O)O)csc2c1
14,94.8,Cc1ccc(COc2cc(C)c3c(c2C)OCC3CC(=O)O)c(C)n1 (stereo not given)
15,94.9,COC(=O)Cc1csc2cc(OCc3ccc(C(F)(F)F)nc3C)cc(F)c12
16,106,Cc1nc(C(F)(F)F)ccc1COc1cc(C)c2c(CC(=O)O)csc2c1F
17,79,O=C(O)CC1CS(=O)(=O)c2cc(OCc3ccc(Cl)cc3Cl)ccc21 (stereo not given)
18,99.2,O=C(O)Cc1csc2cc(OCc3ccc(Cl)cc3Cl)ccc12
19,97.3,Cc1nc(C(F)(F)F)ncc1COc1ccc2c(CC(=O)O)csc2c1
20,83.1,Cc1ccc(/C=C/c2ccc3c(CC(=O)O)csc3c2)c(C)n1
21,99,Cc1ccc(COc2ccc3c(CC(=O)O)csc3c2)c(C)n1
22,93.1,Cc1nc(C(F)(F)F)ccc1COc1ccc2c(CC(=O)O)csc2c1
23,95.6,Cc1cc(COc2cc(C)c3c(CC(=O)O)csc3c2)n(C)n1
24,102,Cc1nc(C(F)(F)F)ccc1COc1cc(F)c2c(CC(=O)O)csc2c1
25,69,CCOC(=O)Cc1csc2cc(OCc3ccc(Cl)cc3Cl)ccc12
